From article PMC3169616, “Unique Residues Involved in Activation of the Multitasking Protease/Chaperone HtrA from Chlamydia trachomatis” (PLoS ONE, 2011)
No end group written: not given here. *: point of attachment. pNA = O=[N+]([O-])c1ccc(N*)cc1

Key:
Format in all cases: biochemical
CtHtrA [1] = target: T1, CtHtrA (Chlamydia trachomatis serovar D, UniProt P18584); assay: Protease assay and kinetic analysis with pNA-labelled peptide substrates; settings: pNA peptide as substrate, absorbance 405 nm, 37°C; for Vmax: reading every 10 s for 30 min
T1 construct: His-tag; made in house; host or cells: E. coli BL21 (DE3), plasmid pETHtrA
T1 sequence (P18584 17-497): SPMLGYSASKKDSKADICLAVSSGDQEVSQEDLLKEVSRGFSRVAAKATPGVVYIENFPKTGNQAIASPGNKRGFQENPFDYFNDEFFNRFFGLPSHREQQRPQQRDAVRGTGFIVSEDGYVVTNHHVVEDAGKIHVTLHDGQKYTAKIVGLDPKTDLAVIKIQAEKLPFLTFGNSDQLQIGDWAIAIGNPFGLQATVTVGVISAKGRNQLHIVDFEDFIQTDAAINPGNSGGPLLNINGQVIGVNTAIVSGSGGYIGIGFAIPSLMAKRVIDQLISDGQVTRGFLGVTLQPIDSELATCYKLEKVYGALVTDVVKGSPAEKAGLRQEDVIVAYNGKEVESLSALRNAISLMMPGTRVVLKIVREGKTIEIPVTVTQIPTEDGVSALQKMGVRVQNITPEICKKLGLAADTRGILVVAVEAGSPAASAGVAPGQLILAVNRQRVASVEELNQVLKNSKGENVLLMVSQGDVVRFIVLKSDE
Experimental: A series of peptide substrates were then designed based on the cleavage sites previously identified in ß-casein [3], PICS results, previously published substrates for E. coli DegP [22], and the REPLi library screening results. These peptides were assayed against CtHtrA and kinetic analysis was conducted (Table 2). […] Generally, peptides with only 4 residues or less were not cleaved. […] The preference for K at P3 implies a salt bridge may be involved in substrate coordination in the CtHtrA active site in the substrate pocket or subsite S3. In a direct comparison between MFRLI-pNA and MFQLI-pNA, R was clearly the most preferred. […] The Km for each of these, however, was at least an order of magnitude higher than the Km for MFKLI-pNa. The results from individually synthesised peptides (Table 2) and the peptides sourced from the REPLi library (Table 1) were consistent in that non-polar sequences are most preferred. […] (Fig. S3).
The purified recombinant protein was examined by Coomassie stained polyacrylamide gels and activity was checked using ß-casein cleavage assays prior to use in peptide assays. Briefly, this involved incubating 2 µg of the protease with 10 µg of ß-casein in 50 mM Tris pH 7.0, 20 mM MgCl2 for 2 h prior to examining the assays by SDS PAGE (ß-casein and protease only controls were always conducted). Protease assays using peptides were conducted using custom synthesised peptides (Mimotopes). The peptides were purified to 95% purity (or greater) and were typically resuspended in 50% isopropanol, although some peptides required 100% DMSO. Protease assays using pNA labelled peptides were conducted using the xMARK Microplate spectrophotometer (Bio-Rad) at 405 nm, incubated at 37°C, with a reading taken every 10 s for 30 min. The maximum slope over a minimum of 8 readings was used for the data analysis. Other peptides were labelled with 7-methoxycoumarin-4-acetic acid (MCA, fluorophore) and 2,4-dinitrophenyl (DNP, quencher). The protease assays using these peptides were conducted in black plates at 37°C using the POLARstar Optima (BMG Labtech). The assays were excited at 340 nm and emission was detected at 405 nm with a gain of 1000, the assays were monitored every 20 s or at the minimum cycle time for up to 40 min. The Omega software was used to calculate the maximum rate from a minimum of 6 time points for each assay. The REPLi library of peptides (Mimotopes, Melbourne, Australia) was also assayed with CtHtrA in the POLARstar Optima using similar assay conditions to those described above. Substrate only and protease only assay controls were conducted for every experiment and protease assays were typically conducted in triplicate on at least two different days. The assay results shown are the maximal rate observed from three or more different assays and adjusted for protein concentration. The assay results shown for the fluorescent compounds have been normalised for the amount of fluorescent emission detected using a standard curve of known concentrations of the MCA fluorophore under the identical assay conditions. All of the peptides used in this work were synthesised commercially to 95% purity or greater (Mimotopes, Melbourne, Australia). All protease assays were conducted minimally in duplicate on three separate occasions.

CtHtrA [2] = target: T1, CtHtrA; assay: Activation of CtHtrA cleavage of Bcas1 substrate by added activator; settings: substrate Bcas1 (MCA-ENLHLPLPIIF-DNP), fluorimetric, 37°C
Experimental: To determine if the addition of a second peptide to the protease assays could activate or increase CtHtrA proteolysis, two activator peptides were tested in the CtHtrA cleavage of the model ß-casein peptide substrate Bcas1. The first was based on the ß-casein C-terminal sequence (Act1: NH2-VLGPVRGPFPIIV-OH) and the second on insulin b chain C-terminal sequence (Act2: NH2-CGELGFFYTP-OH).
Finally, in order to determine if the 24-mer (highest amount with MOMP protein, or Act1), or 12-mer, or both, corresponds to enhanced protease activity, the incubations of CtHtrA and these potential in vivo activators were used for protease assays with the Bcas1 substrate (Fig. 6). […] The presence of the majority of CtHtrA as higher order oligomers correlated with an increased rate of proteolysis for CtHtrA, particularly when these oligomers were predominately 24-mers.
The purified recombinant protein was examined by Coomassie stained polyacrylamide gels and activity was checked using ß-casein cleavage assays prior to use in peptide assays. Briefly, this involved incubating 2 µg of the protease with 10 µg of ß-casein in 50 mM Tris pH 7.0, 20 mM MgCl2 for 2 h prior to examining the assays by SDS PAGE (ß-casein and protease only controls were always conducted). Protease assays using peptides were conducted using custom synthesised peptides (Mimotopes). […] Protease assays using pNA labelled peptides were conducted using the xMARK Microplate spectrophotometer (Bio-Rad) at 405 nm, incubated at 37°C, with a reading taken every 10 s for 30 min. The maximum slope over a minimum of 8 readings was used for the data analysis. […] The assays were excited at 340 nm and emission was detected at 405 nm with a gain of 1000, the assays were monitored every 20 s or at the minimum cycle time for up to 40 min. […] The assay results shown for the fluorescent compounds have been normalised for the amount of fluorescent emission detected using a standard curve of known concentrations of the MCA fluorophore under the identical assay conditions. […]

CtHtrA [3] = target: T1, CtHtrA; assay: Oligomerisation assay (glutaraldehyde crosslinking, 3-8% TrisAcetate gel, silver stain); settings: wild type CtHtrA 2 mg/ml, 100 mM sodium phosphate pH 7.0, 10 mins at 37°C, 0.5% glutaraldehyde fixation
Experimental: E. coli DegP proteolysis activation involves the transition from resting hexamers via trimers to 12- and 24-mers following the peptide activator binding to the PDZ1 binding cleft. CtHtrA oligomer formation induced by Act1 addition was examined after incubation for 10 mins at 37°C. The wild type and mutant proteins were incubated with either the ß-casein based activator peptide (Act1), or with whole insulin (intact), or in the absence of any activator as a control. CtHtrA incubated in the absence of any added activators formed 24-mers with some hexamers detected after 10 mins (Fig. 5). […] The R299W mutant was present as hexamer and 24-mer in the control with no activator. […] The L302N mutant was not detected in any higher oligomeric form under any conditions. L302N was detected as faint hexamer and trimer but mostly monomer under all tested conditions (not visible on these gels). […] I365D was detected as hexamers, trimers, 12-mers, and some 24-mers when incubated in the absence of activators.
The oligomerisation of HtrA into 12- and 24-mer complexes has been independently detected for E. coli HtrA (DegP). The oligomerisation of HtrA (DegP) was triggered by peptides from digested ß-casein [18]. Assays to detect whether CtHtrA and site directed mutant protein oligomerisation was triggered by substrates were conducted essentially as previously described (Merdanovic et al., 2010). Briefly, 2 mg/ml protein solutions in 100 mM sodium phosphate buffer pH 7.0 were pre-incubated to the required temperature. The ligands (activator peptide, or insulin) were added and at 10 min, and the proteins were fixed using 0.5% glutaraldehyde. Samples were fixed at room temperature for 2 min prior to addition of 1 M Tris pH 7.5 to remove any excess glutaraldehyde. Samples were incubated for another 10 min at room temperature prior to addition of SDS PAGE reducing loading buffer. The protein samples were examined on 3–8% TrisAcetate gradient polyacrylamide gels (Novex, Invitrogen) by silver staining. The proteins used in this study were not initially denatured by treatment with urea as, the refolding, formation of oligomers, and protease activity was never successfully detected with denatured CtHtrA. All assays were conducted in duplicate on three separate occasions with at least two gels of each experiment completed for each assay condition.

CtHtrA [4] = target: T1, CtHtrA; assay: Protease assay with MCA/DNP-labelled fluorimetric peptides (REPLi library); settings: peptide based on the optimal activity for human HtrA2; data not shown
Description: To further refine the CtHtrA substrate specificity, the REPLi peptide library (Mimotopes, Melbourne) was screened. The REPLi library peptides consist of a randomised tripeptide sequence flanked on either side by two GGG tripeptide sequences. The N-terminus of each peptide was labelled with a 7-methoxycoumarin (MCA) fluorophore, and the C-terminus was labelled with a 2,4-dinitrophenyl (DNP) fluorescent quencher. The peptides were pooled according to structural similarity and selected wells with high activity were then rescreened as individual peptides to identify the peptides cut by CtHtrA (Fig. S2, all wells where CtHtrA activity was observed). […] Cleavage at the glycine or terminal fluorophore or quenchers was never detected for any peptide. […]
The purified recombinant protein was examined by Coomassie stained polyacrylamide gels and activity was checked using ß-casein cleavage assays prior to use in peptide assays. […] Protease assays using pNA labelled peptides were conducted using the xMARK Microplate spectrophotometer (Bio-Rad) at 405 nm, incubated at 37°C, with a reading taken every 10 s for 30 min. The maximum slope over a minimum of 8 readings was used for the data analysis. […] The assays were excited at 340 nm and emission was detected at 405 nm with a gain of 1000, the assays were monitored every 20 s or at the minimum cycle time for up to 40 min. […]

## DPMFKLV-pNA [previously published E. coli DegP substrate [22], reference compound]
CtHtrA [1]
  Kcat/Km: 241.2 M⁻¹ s⁻¹
  Km: 323 µM
  Vmax: 4.678 mM sec^−1, µM CtHtrA^−1

## H-LAHMMNCGARMIF-OH [PmpC, C-terminal 13 residues of outer membrane ß-barrel PmpC]
CtHtrA [2]
  effect of activator on rate of CtHtrA proteolysis of Bcas1: did not increase the rate of proteolysis of Bcas1
CtHtrA [3]
  CtHtrA oligomer formation induced by activator: activated the formation of 12-mer

## DPMFKLP-pNA [Model E. coli substrate, P at P1]
CtHtrA [1]
  Km: 3870 µM
  Vmax: 2.917 mM sec^−1, µM CtHtrA^−1

## MFRLI-pNA [pNA peptide substrate, P3 modification]
CtHtrA [1]
  Kcat/Km: 106.22 M⁻¹ s⁻¹
  Km: 2910 µM
  Vmax: 18.53 mM sec^−1, µM CtHtrA^−1

## MCA-IRRVSYSF-DNP
CtHtrA [4]
  viability as substrate for CtHtrA: not a viable substrate

## DPMFKLI-pNA [Model E. coli substrate, I at P1]
CtHtrA [1]
  Km: 527 µM
  Vmax: 10.340 mM sec^−1, µM CtHtrA^−1

## PMFKLI-pNA [pNA peptide substrate, 1 residue less]
CtHtrA [1]
  Kcat/Km: 526.7 M⁻¹ s⁻¹
  Km: 314 µM
  Vmax: 9.931 mM sec^−1, µM CtHtrA^−1

## MFQLI-pNA [pNA peptide substrate, P3 modification]
CtHtrA [1]
  Kcat/Km: 21.2 M⁻¹ s⁻¹
  Km: 141 µM
  Vmax: 0.1796 mM sec^−1, µM CtHtrA^−1
